# Test results: US20240315963A1, “COMPOSITIONS AND METHODS FOR EXTENDED DELIVERY OF API TO TREAT DISEASES OF THE EYE” (priority 2023, published 2024)
# Assay: API elution study from the gel, buffer replaced daily, HPLC
# Format: physicochemical
# Settings: 50 mg API in 4-Arm PEG-10K-SG/4-arm-PEG-10K-SAS/4-arm PEG-20K-NH2 gel; 37° C., 2 ml 7.4 buffer replaced daily
# Description: A mold piece manufactured per example 5 is placed in a 2 ml buffered saline at 37° C. water bath. The entire 2 ml saline is removed daily from the sample and a new 2 ml saline is added. The process is repeated daily till the device is completely dissolved. The saline sample with drug is analyzed by HPLC, GC to establish the elution rate.
# Example 22. Powder mixtures of 4-Arm PEG-10K-SG (12.5 mg) and 4-arm-PEG-10K-SAS (12.5±0.5 mg), 4-arm PEG-20K-NH 2 (25±0.5 mg) were placed in a 10 ml syringe. To this powder was added 50 mg corticosteroid TMC.
structure (smiles),measurement,value
C[C@]12C=CC(=O)C=C1CC[C@H]1[C@@H]3C[C@@H](O)[C@](O)(C(=O)CO)[C@@]3(C)C[C@H](O)[C@@]12F [TMC],amount eluted each day,about 54 micro grams
